Values quoted from earlier work in patent US9046534B2, “Methods and systems for identifying and treating anti-progestin sensitive tumors” (INVIVIS PHARMACEUTICALS INC., priority 2011, dated 2015).

How the values were obtained:
[1] = test system: progesterone responsive genes; conditions: compared with progestins and other anti-progestins, which activate progesterone responsive genes
[2] = test system: breast cancer; conditions: first line hormone treatment, small breast cancer study
[3] = molecular target: T1, PR (Homo sapiens, UniProt P06401); conditions: in vitro systems; aggregates produced by an artificial ligand bound to the PR
T1 sequence (P06401 1-933): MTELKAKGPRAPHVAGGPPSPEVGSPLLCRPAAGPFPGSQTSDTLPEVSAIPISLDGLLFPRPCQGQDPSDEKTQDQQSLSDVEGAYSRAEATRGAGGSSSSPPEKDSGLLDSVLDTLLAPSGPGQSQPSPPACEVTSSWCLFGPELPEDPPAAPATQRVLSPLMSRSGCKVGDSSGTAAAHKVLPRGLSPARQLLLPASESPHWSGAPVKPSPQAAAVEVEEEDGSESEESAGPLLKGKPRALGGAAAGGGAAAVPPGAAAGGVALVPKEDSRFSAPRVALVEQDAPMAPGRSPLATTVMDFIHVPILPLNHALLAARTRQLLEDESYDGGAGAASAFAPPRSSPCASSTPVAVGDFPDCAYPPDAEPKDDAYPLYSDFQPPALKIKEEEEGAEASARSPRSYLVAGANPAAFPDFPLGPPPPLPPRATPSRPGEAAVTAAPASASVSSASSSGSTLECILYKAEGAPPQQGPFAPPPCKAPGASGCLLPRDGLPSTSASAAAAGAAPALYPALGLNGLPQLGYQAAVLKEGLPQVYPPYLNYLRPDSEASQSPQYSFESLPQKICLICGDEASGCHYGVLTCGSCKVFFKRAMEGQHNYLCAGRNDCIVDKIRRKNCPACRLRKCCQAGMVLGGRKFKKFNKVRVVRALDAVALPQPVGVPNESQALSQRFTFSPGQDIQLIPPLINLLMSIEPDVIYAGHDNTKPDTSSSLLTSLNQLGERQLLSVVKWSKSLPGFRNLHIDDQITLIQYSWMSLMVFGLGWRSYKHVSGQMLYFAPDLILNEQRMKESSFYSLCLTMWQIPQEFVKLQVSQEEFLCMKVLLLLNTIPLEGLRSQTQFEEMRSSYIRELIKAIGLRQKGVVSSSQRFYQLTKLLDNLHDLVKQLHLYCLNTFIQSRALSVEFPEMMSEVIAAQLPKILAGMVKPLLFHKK

[4] = test system: advanced breast cancer; conditions: 101 poor prognosis patients with advanced breast cancer, progressed despite prior hormonal therapy (tamoxifen)
[5] = human subjects; an increase is an undesirable side-effect for breast cancer therapy

CN(C)c1ccc([C@H]2C[C@]3(C)[C@@H](CC[C@]3(O)CCCO)C3CCC4=CC(=O)CCC4=C32)cc1 (stereo in doubt) [Onapristone, (8S,11R,13R,14S,17S)-11-[4-(dimethylamino)phenyl]-17-hydroxy-17-(3-hydroxypropyl)-13-methyl-1,2,6,7,8,11,12,14,15,16-decahydrocyclopenta[a]phenanthren-3-one]
activation of progesterone responsive genes (number of genes activated) [1]: 3 genes | objective response rate [2]: 56% | effect on PR nuclear aggregates [3]: reverse the PR nuclear aggregates | response rate [4]: 10% | effect on estrogen secretion [5]: does not increase estrogen secretion
